Measurements as given in paper PMC9953043, “Licochalcone E, a β-Amyloid Aggregation Inhibitor, Regulates Microglial M1/M2 Polarization via Inhibition of CTL1-Mediated Choline Uptake” (Biomolecules, 2023).

Target: T1, amyloid-β 1-42 (Aβ1-42) (Homo sapiens, UniProt P05067)
T1 construct: gene APP; Aβ1-42 peptide
Assay: Thioflavin T aggregation assay with purified Aβ[…]-42 peptide
Type: biochemical

T1 sequence (P05067 672-713): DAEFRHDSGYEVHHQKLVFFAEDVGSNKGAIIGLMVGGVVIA

COc1c(/C=C/C(=O)c2ccc(O)c(CC=C(C)C)c2)ccc(O)c1O [Lico D, Licochalcone D] showed an IC50 of 30.4 µM.

In the case of C=C(C)[C@H](C)c1cc(/C=C/C(=O)c2ccc(O)cc2)c(OC)cc1O [Lico E, Licochalcone E], the IC50 is reported as 104 µM.
